Laboratory results: patent US8772319B2 (priority 2004, dated 2014)
Where two headings read alike, the source gives them in different places.

Columns and labels:
[1] = target: T1, human dopamine transporter (hDAT) (Homo sapiens, UniProt Q01959); assay: biochemical; type: binding
[2] = target: T2, human serotonin transporter (hSERT) (Homo sapiens, UniProt P31645); assay: biochemical; details: [125I]RTI-55, read-out: SERT binding affinity Ki
[3] = target: T3, human norepinephrine transporter (hNET) (Homo sapiens, UniProt P23975); assay: biochemical; details: [125I]RTI-55, read-out: NET binding affinity Ki
T3 sequence (P23975 whole entry): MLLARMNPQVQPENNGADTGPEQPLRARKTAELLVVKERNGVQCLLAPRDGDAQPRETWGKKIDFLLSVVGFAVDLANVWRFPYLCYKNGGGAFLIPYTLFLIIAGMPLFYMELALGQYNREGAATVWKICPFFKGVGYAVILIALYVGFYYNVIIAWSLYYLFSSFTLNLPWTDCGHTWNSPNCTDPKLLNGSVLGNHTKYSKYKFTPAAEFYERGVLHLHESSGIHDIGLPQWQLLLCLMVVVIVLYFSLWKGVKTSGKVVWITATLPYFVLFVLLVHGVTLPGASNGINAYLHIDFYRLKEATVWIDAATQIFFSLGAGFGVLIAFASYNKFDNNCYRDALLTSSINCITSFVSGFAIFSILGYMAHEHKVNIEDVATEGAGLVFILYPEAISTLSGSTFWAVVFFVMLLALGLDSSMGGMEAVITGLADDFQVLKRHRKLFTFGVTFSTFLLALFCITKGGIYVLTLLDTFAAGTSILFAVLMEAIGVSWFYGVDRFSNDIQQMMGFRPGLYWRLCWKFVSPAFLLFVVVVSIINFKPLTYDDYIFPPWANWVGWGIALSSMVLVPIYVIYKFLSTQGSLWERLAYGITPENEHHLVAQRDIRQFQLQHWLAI

[4] = target: T1, human dopamine transporter (hDAT); assay: cell-based
[5] = target: T2, human serotonin transporter (hSERT); assay: cell-based
[6] = target: T3, human norepinephrine transporter (hNET); assay: cell-based; details: read-out: Reuptake Inhibition [3H]NE IC50
[7] = Reuptake Inhibition [3H]DA IC50, Table 6
[8] = Reuptake Inhibition [3H]5-HT IC50, Table 6
[9] = Reuptake Inhibition [3H]DA IC50, Table 3-1
[10] = Table 4-1, read-out: Reuptake Inhibition [3H]5-HT IC50

T2 sequence (P31645 whole entry): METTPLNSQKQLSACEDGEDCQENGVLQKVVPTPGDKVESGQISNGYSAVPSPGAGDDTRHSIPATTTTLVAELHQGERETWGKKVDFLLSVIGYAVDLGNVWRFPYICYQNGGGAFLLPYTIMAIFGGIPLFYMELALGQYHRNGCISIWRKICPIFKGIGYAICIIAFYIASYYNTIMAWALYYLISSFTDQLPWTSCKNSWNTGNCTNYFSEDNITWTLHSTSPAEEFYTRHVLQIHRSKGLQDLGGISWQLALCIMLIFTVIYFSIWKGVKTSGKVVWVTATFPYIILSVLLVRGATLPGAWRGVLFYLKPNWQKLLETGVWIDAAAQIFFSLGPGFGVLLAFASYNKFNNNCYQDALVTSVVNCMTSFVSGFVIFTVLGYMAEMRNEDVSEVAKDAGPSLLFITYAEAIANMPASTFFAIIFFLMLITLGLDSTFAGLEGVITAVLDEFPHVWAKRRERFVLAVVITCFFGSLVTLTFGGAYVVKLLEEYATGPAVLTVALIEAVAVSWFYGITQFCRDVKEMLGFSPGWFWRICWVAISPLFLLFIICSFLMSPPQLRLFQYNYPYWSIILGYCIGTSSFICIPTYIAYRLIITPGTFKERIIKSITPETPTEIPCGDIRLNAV
T1 sequence (Q01959 whole entry): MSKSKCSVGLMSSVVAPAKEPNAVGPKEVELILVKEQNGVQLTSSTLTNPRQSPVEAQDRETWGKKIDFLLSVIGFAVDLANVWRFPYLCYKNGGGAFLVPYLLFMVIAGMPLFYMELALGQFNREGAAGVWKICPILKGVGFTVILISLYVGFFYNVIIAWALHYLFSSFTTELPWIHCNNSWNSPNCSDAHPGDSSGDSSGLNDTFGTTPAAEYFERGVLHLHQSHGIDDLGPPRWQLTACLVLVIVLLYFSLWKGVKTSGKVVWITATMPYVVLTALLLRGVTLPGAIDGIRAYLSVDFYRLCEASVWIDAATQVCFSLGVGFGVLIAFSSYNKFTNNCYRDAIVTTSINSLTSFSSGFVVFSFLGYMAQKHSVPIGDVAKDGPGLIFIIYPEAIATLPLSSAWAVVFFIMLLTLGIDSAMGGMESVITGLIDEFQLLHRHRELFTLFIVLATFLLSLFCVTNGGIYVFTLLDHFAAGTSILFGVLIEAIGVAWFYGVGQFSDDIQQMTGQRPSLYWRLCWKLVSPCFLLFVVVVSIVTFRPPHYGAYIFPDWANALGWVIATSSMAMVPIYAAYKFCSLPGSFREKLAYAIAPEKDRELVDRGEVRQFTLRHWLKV

Row | Compound | Ki [1] | Binding Ratios NET/DAT ([1]; Table 5) | Binding Ratios SERT/DAT ([1]; Table 5) | Ki ([2]; Table 5, oxalate salts) | Ki ([3]; Table 5, oxalate salts) | IC50 [4, 7] | Discrimination Ratios (DR) [3H]DA reuptake/DAT binding ([4]; Table 6) | IC50 [5, 8] | IC50 ([6]; Table 6) | other results
1 | O=[N+]([O-])c1ccc(N2CCN(CCCCOC(c3ccc(F)cc3)c3ccc(F)cc3)CC2)cc1 [Compound 38, 1-[4-Nitrophenyl]-4-[1-[bis(4-fluorophenyl)methoxy]-4-butyl]piperazine] | 60 ± 19 nM | 4.0 | 2.6 | 154 ± 44 nM | 239 ± 13 nM | 2.35 ± 0.54 µM | 39.2 | 0.39 ± 0.13 µM | 230 ± 110 nM | –
2 | CC(=O)c1ccc(N2CCN(CCCCOC(c3ccc(F)cc3)c3ccc(F)cc3)CC2)cc1 [Compound 37, 1-[4-[4-[4-[Bis(4-fluorophenyl)methoxy]butyl]piperazin-1-yl]phenyl]ethanone] | 27 ± 8.6 nM | 4.1 | 1.6 | 42 ± 16 nM | 112 ± 38 nM | 3.01 ± 0.0086 µM | 111.5 | 1.23 ± 0.54 µM | 33 ± 15 nM | –
3 | O=C(Nc1ccc(F)cc1)NC1CCN(CCCCOC(c2ccc(F)cc2)c2ccc(F)cc2)CC1 [Compound 17] | 32 ± 1.4 nM | – | – | – | – | – | – | – | – | Binding Ratios NET/DAT ([1]; Table 3): 13.4; Binding Ratios SERT/DAT ([1]; Table 3): 8.7; Ki ([2]; Table 3): 279 ± 57 nM; Ki ([3]; Table 3): 430 ± 100 nM; IC50 [4, 9]: 7 ± 1.79 µM; Discrimination Ratios [3H]DA reuptake/DAT binding ([4]; Table 3-1): 219; IC50 ([5]; Reuptake Inhibition [3H]5-HT IC50, Table 3-1): 7.14 µM; IC50 ([6]; Table 3-1): 2530 nM
4 | Fc1ccc(C(OCCCCN2CCN(C(=S)Nc3cccnc3)CC2)c2ccc(F)cc2)cc1 [Compound 6] | 170 ± 24 nM | – | – | – | – | – | – | – | – | Binding Ratios NET/DAT ([1]; Table 1): 14.4; Binding Ratios SERT/DAT ([1]; Table 1): 6.4; Ki ([2]; Table 1): 1080 ± 300 nM; Ki ([3]; Table 1): 2450 ± 367 nM; IC50 ([4]; Reuptake Inhibition [3H]DA IC50, Table 1-1): 0.097 ± 0.019 µM; Discrimination Ratios [3H]DA reuptake/DAT binding ([4]; Table 1-1): 0.6; IC50 ([5]; Reuptake Inhibition [3H]5-HT IC50, Table 1-1): 0.308 ± 0.102 µM; IC50 ([6]; Table 1-1): 359 ± 108 nM
5 | O=C(NCC1(c2ccccc2)CCN(CCCCOC(c2ccc(F)cc2)c2ccc(F)cc2)CC1)Nc1ccc(F)cc1 [Compound 22] | 83 nM | – | – | – | – | – | – | – | – | Binding Ratios SERT/DAT ([1]; Table 4): 2.8; Ki ([2]; Table 4): 234 nM; Discrimination Ratios [3H]DA reuptake/DAT binding ([4]; Table 4-1): 120.5; IC50 ([4]; Table 4-1, bound given in μM, read-out: Reuptake Inhibition [3H]DA IC50): > 10 µM; IC50 [5, 10]: 0.367 ± 0.062 µM
6 | O=C(NCC1CCCN(CCCCOC(c2ccc(F)cc2)c2ccc(F)cc2)C1)Nc1ccc(F)cc1 (stereo not drawn) [Compound 12] | 93 nM | – | – | – | – | – | – | – | – | Binding Ratios NET/DAT ([1]; Table 2): 1.1; Binding Ratios SERT/DAT ([1]; Table 2): 2.1; Ki ([2]; Table 2): 198 nM; Ki ([3]; Table 2): 99 nM; IC50 ([4]; Reuptake Inhibition [3H]DA IC50, Table 2-1): 0.092 ± 0.024 µM; Discrimination Ratios [3H]DA reuptake/DAT binding ([4]; Table 2-1): 1.0; IC50 ([5]; Reuptake Inhibition [3H]5-HT IC50, Table 2-1): 0.123 ± 0.016 µM; IC50 ([6]; Table 2-1): 20 nM
7 | O=C(NCc1ccc(F)cc1)NC1CCN(CCCCOC(c2ccc(F)cc2)c2ccc(F)cc2)CC1 [Compound 18] | 1.7 nM | – | – | – | – | – | – | – | – | Binding Ratios NET/DAT ([1]; Table 3): 25.3; Binding Ratios SERT/DAT ([1]; Table 3): 121; Ki ([2]; Table 3): 206 ± 37 nM; Ki ([3]; Table 3): 43 nM; IC50 [4, 9]: 1.05 ± 0.291 µM; Discrimination Ratios [3H]DA reuptake/DAT binding ([4]; Table 3-1): 618; IC50 ([5]; Reuptake Inhibition [3H]5-HT IC50, Table 3-1, bound given in μM): > 10 µM; IC50 ([6]; Table 3-1): 1670 ± 688 nM
8 | Fc1ccc(C(OCCCCN2CCN(Cc3ccc4c(c3)OCO4)CC2)c2ccc(F)cc2)cc1 [Compound 41, 1-Benzo[1,3]dioxol-5-ylmethyl-4-[4-[bis(4-fluorophenyl)methoxy]butyl]piperazine] | 33 ± 13 nM | 1.7 | 1.8 | 59 ± 22 nM | 55 ± 18 nM | 1 ± 0.06 µM | 30.3 | 3.28 ± 0.61 µM | 43 ± 19 nM | –
9 | Fc1ccc(C(OCCCCN2CCNCC2)c2ccc(F)cc2)cc1 [Compound 3] | – | 5.7 | 3.2 | 1900 ± 330 nM | 3400 ± 1500 nM | – | 1.7 | – | 850 ± 270 nM | Ki ([1]; Table 5, [125I]RTI-55, oxalate salts, read-out: DAT binding affinity Ki): 600 ± 190 nM; IC50 ([4]; Table 6, read-out: Reuptake Inhibition [3H]DA IC50): 1 ± 0.19 µM; IC50 ([5]; Table 6, read-out: Reuptake Inhibition [3H]5-HT IC50): 2.17 ± 0.078 µM
10 | Fc1ccc(C(OCCCCN2CCN(c3ccccc3Cl)CC2)c2ccc(F)cc2)cc1 [Compound 32, 1-(2-Chlorophenyl)-4-[4-[bis(4-fluorophenyl)methoxy]butyl]piperazine] | 67 ± 10 nM | 8.1 | 1.3 | 88 ± 29 nM | 540 ± 180 nM | 0.328 ± 0.034 µM | 4.9 | 0.119 ± 0.033 µM | 290 ± 110 nM | –
11 | O=C(CCl)NCC1(c2ccccc2)CCN(CCCCOC(c2ccc(F)cc2)c2ccc(F)cc2)CC1 [Compound 26] | – | – | – | – | – | – | – | – | – | Binding Ratios SERT/DAT ([1]; Table 4): 1.8; Ki ([1]; Table 4, [125I]RTI-55, read-out: DAT binding affinity Ki): 316 ± 77 nM; Ki ([2]; Table 4): 580 ± 177 nM; Discrimination Ratios [3H]DA reuptake/DAT binding ([4]; Table 4-1): 1.5; IC50 ([4]; Table 4-1, read-out: Reuptake Inhibition [3H]DA IC50): 0.486 ± 0.25 µM; IC50 [5, 10]: 0.27 µM
